Experimental data: US8022206B2 (OSI Pharmaceuticals, LLC, priority 2008, dated 2011)
pIC50: −log10 of the molar value.

Experiments:
RON (human) = RON (human) (Homo sapiens, UniProt Q04912); test: RON (human) AlphaScreen kinase assay, Km of ATP; assay type: biochemical; settings: AlphaScreen, Km of ATP; read-out: RON biochemical IC50
How it was run: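 Detection used PT66 AlphaScreen beads added in Tris pH 7.5/NaCl/EDTA/BSA buffer, read after 1 h incubation. Vehicle-only DMSO wells served as controls.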

MET (human) = MET (human) (Homo sapiens, UniProt P08581); test: MET (human) AlphaScreen kinase assay, Km of ATP; assay type: biochemical; settings: AlphaScreen, Km of ATP; read-out: Met biochemical IC50
Chain of MET (human) (P08581 25-1390): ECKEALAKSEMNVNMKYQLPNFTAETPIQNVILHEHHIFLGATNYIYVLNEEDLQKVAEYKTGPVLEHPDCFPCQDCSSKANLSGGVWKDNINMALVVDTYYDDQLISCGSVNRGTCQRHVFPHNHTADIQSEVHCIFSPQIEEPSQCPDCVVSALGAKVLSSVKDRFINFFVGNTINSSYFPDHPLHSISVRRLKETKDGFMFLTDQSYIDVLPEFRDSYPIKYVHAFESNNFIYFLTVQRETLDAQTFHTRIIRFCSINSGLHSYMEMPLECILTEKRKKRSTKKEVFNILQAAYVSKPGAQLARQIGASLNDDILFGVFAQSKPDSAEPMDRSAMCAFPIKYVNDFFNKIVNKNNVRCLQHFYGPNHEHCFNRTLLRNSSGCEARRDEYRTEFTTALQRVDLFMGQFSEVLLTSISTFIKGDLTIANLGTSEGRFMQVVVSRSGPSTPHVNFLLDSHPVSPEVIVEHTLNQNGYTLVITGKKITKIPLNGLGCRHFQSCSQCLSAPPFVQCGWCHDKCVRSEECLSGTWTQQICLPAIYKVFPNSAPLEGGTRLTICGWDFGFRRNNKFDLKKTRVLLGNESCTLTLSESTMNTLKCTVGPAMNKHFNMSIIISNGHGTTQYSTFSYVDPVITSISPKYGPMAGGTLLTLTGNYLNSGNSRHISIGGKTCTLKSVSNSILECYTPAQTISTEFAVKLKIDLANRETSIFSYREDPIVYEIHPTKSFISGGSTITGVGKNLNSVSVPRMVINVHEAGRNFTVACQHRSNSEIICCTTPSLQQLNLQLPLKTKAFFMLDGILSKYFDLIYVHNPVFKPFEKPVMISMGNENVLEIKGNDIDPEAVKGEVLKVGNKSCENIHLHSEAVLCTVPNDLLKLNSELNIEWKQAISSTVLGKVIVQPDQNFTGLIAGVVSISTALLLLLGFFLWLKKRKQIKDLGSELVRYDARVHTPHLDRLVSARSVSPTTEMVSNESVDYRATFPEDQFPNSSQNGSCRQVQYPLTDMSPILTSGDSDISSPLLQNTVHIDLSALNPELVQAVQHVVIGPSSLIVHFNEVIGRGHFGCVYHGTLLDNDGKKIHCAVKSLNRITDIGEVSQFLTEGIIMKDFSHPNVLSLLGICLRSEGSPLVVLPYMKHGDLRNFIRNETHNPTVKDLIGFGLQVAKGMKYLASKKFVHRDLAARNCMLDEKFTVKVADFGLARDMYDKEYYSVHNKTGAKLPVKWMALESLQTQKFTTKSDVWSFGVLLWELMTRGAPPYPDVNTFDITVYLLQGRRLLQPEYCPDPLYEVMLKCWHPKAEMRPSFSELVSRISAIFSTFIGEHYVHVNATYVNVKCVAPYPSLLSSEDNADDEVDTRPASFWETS
How it was run: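 Human MET at lot-optimised concentration in 50 mM Tris pH 7.4 buffer with 1 mM DTT, compound at 1% DMSO final; enzyme starts the reaction, 60 min at RT.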

Chain of RON (human) (Q04912 25-1400): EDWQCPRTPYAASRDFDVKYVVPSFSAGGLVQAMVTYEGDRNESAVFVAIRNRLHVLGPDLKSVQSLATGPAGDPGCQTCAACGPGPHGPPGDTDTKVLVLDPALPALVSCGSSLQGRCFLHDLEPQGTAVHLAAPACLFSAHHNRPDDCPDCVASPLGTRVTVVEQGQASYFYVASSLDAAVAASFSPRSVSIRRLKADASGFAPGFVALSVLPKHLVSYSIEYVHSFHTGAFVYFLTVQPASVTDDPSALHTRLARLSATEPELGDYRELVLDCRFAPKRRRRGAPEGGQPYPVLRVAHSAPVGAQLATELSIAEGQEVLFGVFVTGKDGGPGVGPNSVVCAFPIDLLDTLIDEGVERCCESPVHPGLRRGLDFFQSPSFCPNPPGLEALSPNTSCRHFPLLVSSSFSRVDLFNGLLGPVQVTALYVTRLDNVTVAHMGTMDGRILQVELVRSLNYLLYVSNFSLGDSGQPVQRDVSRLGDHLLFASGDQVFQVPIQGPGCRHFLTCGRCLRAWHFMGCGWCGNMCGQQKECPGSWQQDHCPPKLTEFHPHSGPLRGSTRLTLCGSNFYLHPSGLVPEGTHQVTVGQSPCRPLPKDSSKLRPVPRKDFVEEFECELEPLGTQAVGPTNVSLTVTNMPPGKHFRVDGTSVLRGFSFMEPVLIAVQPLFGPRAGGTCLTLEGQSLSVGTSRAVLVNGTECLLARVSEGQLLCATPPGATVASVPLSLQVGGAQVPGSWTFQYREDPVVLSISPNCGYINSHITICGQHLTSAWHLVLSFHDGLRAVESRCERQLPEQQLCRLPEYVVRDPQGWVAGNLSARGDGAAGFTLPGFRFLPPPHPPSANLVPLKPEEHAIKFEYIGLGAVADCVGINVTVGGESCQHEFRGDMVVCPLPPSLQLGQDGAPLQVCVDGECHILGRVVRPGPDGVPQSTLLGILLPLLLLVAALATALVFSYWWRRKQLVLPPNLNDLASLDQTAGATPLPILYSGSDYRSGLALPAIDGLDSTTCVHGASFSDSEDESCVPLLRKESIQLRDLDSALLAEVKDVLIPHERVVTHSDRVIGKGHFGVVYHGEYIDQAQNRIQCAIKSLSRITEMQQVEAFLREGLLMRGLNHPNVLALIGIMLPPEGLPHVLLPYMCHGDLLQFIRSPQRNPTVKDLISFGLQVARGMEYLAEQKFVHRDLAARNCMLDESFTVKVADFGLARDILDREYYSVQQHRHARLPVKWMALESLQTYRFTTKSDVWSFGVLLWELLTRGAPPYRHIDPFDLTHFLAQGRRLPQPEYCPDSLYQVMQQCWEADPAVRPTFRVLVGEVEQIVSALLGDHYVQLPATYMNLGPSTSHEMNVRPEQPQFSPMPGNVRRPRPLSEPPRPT

pIC50 (RON (human)) | pIC50 (MET (human)) | Structure (SMILES)
5.30 to 6.30 | 5.30 to 6.30 | C[C@@H](Oc1c(N)ncc2c(-c3cccc(C(N)=O)c3)coc12)c1c(Cl)ccc(F)c1Cl [Example 70, 3-{6-Amino-7-[(R)-1-(2,6-dichloro-3-fluorophenyl)ethoxy]-furo[3,2-c]pyridin-3-yl}benzamide]
5.30 to 6.30 | 5.30 to 6.30 | Cc1ccc(C(C)Oc2c(N)ncc3c(-c4cnn(C5CCNCC5)c4)coc23)cc1 (stereo not shown) [Example 344, 3-(1-Piperidin-4-yl-1H-pyrazol-4-yl)-7-(1-p-tolylethoxy)furo[3,2-c]pyridin-6-ylamine]
4.70 to 5.30 | 5.30 to 6.30 | CNC(=O)c1ccc(C(C)Oc2c(N)ncc3c(-c4cnn(C5CCNCC5)c4)coc23)cc1 (stereo not shown) [Example 421, 4-{1-[6-Amino-3-(1-piperidin-4-yl-1H-pyrazol-4-yl)furo[3,2-c]pyridin-7-yloxy]ethyl}-N-methylbenzamide]
5.30 to 6.30 | > 6.30 | C[C@@H](Oc1c(N)ncc2c(C(=O)NCCN(C)C)coc12)c1c(Cl)ccc(F)c1Cl [Example 190, 6-Amino-7-[(R)-1-(2,6-dichloro-3-fluorophenyl)ethoxy]furo[3,2-c]pyridine-3-carboxylic acid (3-dimethylaminoethyl)amide]
5.30 to 6.30 | > 6.30 | COc1cc(Cl)cc(Cl)c1C(C)Oc1c(N)ncc2c(-c3cnn(C4CCNCC4)c3)coc12 (stereo not shown) [Example 360, 7-[1-(2,4-Dichloro-6-methoxyphenyl)ethoxy]-3-(1-piperidin-4-yl-1H-pyrazol-4-yl)furo[3,2-c]pyridin-6-ylamine]
5.30 to 6.30 | 5.30 to 6.30 | C[C@H](Cc1ccccc1)Oc1c(N)ncc2c(-c3cnn(C4CCNCC4)c3)coc12 [Example 415, 7-((R)-1-Methyl-2-phenylethoxy)-3-(1-piperidin-4-yl-1H-pyrazol-4-yl)furo[3,2-c]pyridin-6-ylamine]
5.30 to 6.30 | 5.30 to 6.30 | CC(Oc1c(N)ncc2c(-c3cnn(C4CCNCC4)c3)coc12)c1ccc2ccccc2c1 (stereo not shown) [Example 432, 7-(1-Naphthalen-2-ylethoxy)-3-(1-piperidin-4-yl-1H-pyrazol-4-yl)furo[3,2-c]pyridin-6-ylamine]
5.30 to 6.30 | > 6.30 | CCN1CCC(n2cc(-c3coc4c(O[C@H](C)c5c(Cl)ccc(F)c5Cl)c(N)ncc34)cn2)CC1 [Example 278, 7-[(1R)-1-(2,6-Dichloro-3-fluorophenyl)ethoxy]-3-[1-(1-ethylpiperidin-4-yl)-1H-pyrazol-4-yl]furo[3,2-c]pyridin-6-amine]
> 6.30 | > 6.30 | C[C@@H](Oc1c(N)ncc2c(-c3ccc(CN4CCC4)s3)coc12)c1c(Cl)ccc(F)c1Cl [Example 220, 3-(5-Azetidin-1-ylmethylthiophen-2-yl)-7-[(R)-1-(2,6-dichloro-3-fluorophenyl)ethoxy]furo[3,2-c]pyridin-6-ylamine]
5.30 to 6.30 | 5.30 to 6.30 | C[C@@H](Oc1c(N)ncc2c(-c3ccc(N4CCN(C(N)=O)CC4)nc3)coc12)c1c(Cl)ccc(F)c1Cl [Example 319, 4-(5-{6-Amino-7-[(R)-1-(2,6-dichloro-3-fluorophenyl)ethoxy]furo[3,2-c]pyridin-3-yl}pyridin-2-yl)piperazine-1-carboxamide]
> 6.30 | > 6.30 | C[C@@H](Oc1c(N)ncc2c(-c3ccc(C(=O)N4CCNCC4)cc3)coc12)c1c(Cl)ccc(F)c1Cl [Example 106, (4-{6-Amino-7-[(R)-1-(2,6-dichloro-3-fluorophenyl)ethoxy]furo[3,2-c]pyridin-3-yl}phenyl)piperazin-1-ylmethanone]
5.30 to 6.30 | 5.30 to 6.30 | C[C@@H](Oc1c(N)ncc2c(-c3cccc(C(=O)NCCN4CCOCC4)c3)coc12)c1c(Cl)ccc(F)c1Cl [Example 97, 3-{6-Amino-7-[(R)-1-(2,6-dichloro-3-fluorophenyl)ethoxy]-furo[3,2-c]pyridin-3-yl}-N-(2-morpholin-4-ylethyl)benzamide]
> 6.30 | > 6.30 | C#CCC(Oc1c(N)ncc2c(-c3cnn(C4CCNCC4)c3)coc12)c1c(Cl)cccc1Cl (stereo not shown) [Example 341, 7-[1-(2,6-Dichlorophenyl)but-3-ynyloxy]-3-(1-piperidin-4-yl-1H-pyrazol-4-yl)-furo[3,2-c]pyridin-6-ylamine]
5.30 to 6.30 | 5.30 to 6.30 | C[C@@H](Oc1c(N)ncc2c(-c3cccc(N)c3)coc12)c1c(Cl)ccc(F)c1Cl [Example 66, 3-(3-Aminophenyl)-7-[(R)-1-(2,6-dichloro-3-fluorophenyl)ethoxy]-furo[3,2-c]pyridin-6-ylamine]
5.30 to 6.30 | 5.30 to 6.30 | CC(=O)Nc1cccc(-c2coc3c(O[C@H](C)c4c(Cl)ccc(F)c4Cl)c(N)ncc23)c1 [Example 78, N-(3-{6-Amino-7-[(R)-1-(2,6-dichloro-3-fluorophenyl)ethoxy]-furo[3,2-c]pyridin-3-yl}phenyl)acetamide]
5.30 to 6.30 | > 6.30 | C[C@@H](Oc1c(N)ncc2c(-c3ccc(N)nc3)coc12)c1c(Cl)ccc(F)c1Cl [Example 131, 3-(6-Amino-pyridin-3-yl)-7-[(R)-(2,6-dichloro-3-fluorophenyl)ethoxy]furo[3,2-c]pyridin-6-ylamine]
5.30 to 6.30 | 5.30 to 6.30 | C[C@@H](Oc1c(N)ncc2c(C3=CCN(C(=O)C4(O)CC4)CC3)coc12)c1c(Cl)ccc(F)c1Cl [Example 19, (4-{6-Amino-7-[(R)-1-(2,6-dichloro-3-fluorophenyl)-ethoxy]-furo[3,2-c]pyridin-3-yl}-3,6-dihydro-2H-pyridin-1-yl)-(1-hydroxycyclopropyl)-methanone]
5.30 to 6.30 | 5.30 to 6.30 | C[C@@H](Oc1c(N)ncc2c(-c3ccc(C(=O)N4CCC(O)C4)cc3)coc12)c1c(Cl)ccc(F)c1Cl (stereo partly shown) [Example 299]
> 6.30 | > 6.30 | CC(Cc1cccc(Cl)c1)Oc1c(N)ncc2c(-c3cnn(C4CCNCC4)c3)coc12 (stereo not shown) [Example 427, 7-[2-(3-Chlorophenyl)-1-methylethoxy]-3-(1-piperidin-4-yl-1H-pyrazol-4-yl)furo[3,2-c]pyridin-6-ylamine]
> 6.30 | > 6.30 | C[C@@H](Oc1c(N)ncc2c(C3=CCN(C(=O)CN)CC3)coc12)c1c(Cl)ccc(F)c1Cl [Example 253, 2-Amino-1-[4-{6-amino-7-[(1R)-1-(2,6-dichloro-3-fluorophenyl)ethoxy]furo[3,2-c]pyridin-3-yl}-3,6-dihydropyridin-1(2H)-yl]ethanone]
5.30 to 6.30 | 5.30 to 6.30 | CC(Oc1c(N)ncc2c(-c3cnn(C4CCNCC4)c3)coc12)c1ncc(C(F)(F)F)cc1Cl (stereo not shown) [Example 413, 7-[1-(3-Chloro-5-trifluoromethylpyridin-2-yl)ethoxy]-3-(1-piperidin-4-yl-1H-pyrazol-4-yl)furo[3,2-c]pyridin-6-ylamine]
5.30 to 6.30 | 5.30 to 6.30 | C[C@@H](Oc1c(N)ncc2c(-c3ccc(CO)cc3)coc12)c1c(Cl)ccc(F)c1Cl [Example 64, (4-{6-Amino-7-[(R)-1-(2,6-dichloro-3-fluorophenyl)ethoxy]-furo[3,2-c]pyridin-3-yl}-phenyl)methanol]

Structure (SMILES) | pIC50 (RON (human)) | pIC50 (MET (human))
C[C@@H](Oc1c(N)ncc2c(C3=CCN(CC#N)CC3)coc12)c1c(Cl)ccc(F)c1Cl [Example 321, (4-{6-Amino-7-[(R)-1-(2,6-dichloro-3-fluorophenyl)ethoxy]furo[3,2-c]pyridin-3-yl}-3,6-dihydro-2H-pyridin-1-yl)acetonitrile] | 5.30 to 6.30 | > 6.30
